The source of these data is patent US9790202B2, “Anthranilamide derivatives as pesticides” (priority 2010, dated 2017).

Like-named read-outs stand apart in the source and are kept apart here.

Data set [1] concerns larvae of the mustard beetle (Phaedon cochleariae). In words: Phaedon test (PHAECO spray treatment), Use Example 6, comparison with prior art. Type of data set: in vivo. The settings on record: 168 h, 7 d. Here is the method:
(§1) Phaedon Test (PHAECO Spray Treatment)
Solvent: 78.0 parts by weight of acetone
1.5 parts by weight of dimethylformamide
(§2) Emulsifier: 0.5 part by weight of alkylaryl polyglycol ether
To produce an appropriate active ingredient formulation, 1 part by weight of active ingredient is mixed with the stated amounts of solvent and emulsifier, and the concentrate is diluted with emulsifier-containing water to the desired concentration. Leaf discs of Chinese cabbage (Brassica pekinensis) are sprayed with an active ingredient formulation of the desired concentration and, after drying, populated with larvae of the mustard beetle (Phaedon cochleariae).
After the desired period of time, the effect in % is determined. 100% means that all beetle larvae have been killed; 0% means that no beetle larvae have been killed.

In another data set the test system is adult Musca domestica. In words: Musca domestica test (MUSCDO). The following applies: 100 ppm, treated sponge, after 2 days. Type of data set: in vivo. The procedure: Musca domestica Test (MUSCDO)
(§3) Solvent: dimethyl sulphoxide
(§4) To prepare an appropriate active ingredient formulation, 10 mg of active ingredient are mixed with 0.5 ml of dimethyl sulphoxide and the concentrate is diluted with water to the desired concentration.
Vessels containing a sponge treated with the active ingredient preparation of the desired concentration are populated with 10 adult Musca domestica.
After 2 days, the kill in % is determined 100% means that all flies have been killed; 0% means that no flies have been killed.

In data set [2] the test system is green peach aphid (Myzus persicae). In words: Myzus test (MYZUPE spray treatment). Type of data set: in vivo. The following applies: foliar, 144 h, read-out: efficacy in % (aphids killed). The procedure:
Myzus Test (MYZUPE Spray Treatment)
Solvent: 78 parts by weight of acetone 1.5 parts by weight of dimethylformamide
as §2
(§5) To produce an appropriate active ingredient formulation, 1 part by weight of active ingredient is mixed with the stated amounts of solvent and emulsifier, and the concentrate is diluted with emulsifier-containing water to the desired concentration.
Leaf discs of Chinese cabbage (Brassica pekinensis) infested by all stages of the green peach aphid (Myzus persicae) are sprayed with an active ingredient formulation of the desired concentration.
After 6 days, the efficacy in % is determined 100% means that all aphids have been killed; 0% means that no aphids have been killed.

In data set [3] the test system is Lucilia cuprina 1st instar larvae. Description: Lucilia cuprina test (LUCICU). The class given is in vivo. The settings on record: 100 ppm, treated horsemeat, after 48 h. Here is the method:
Lucilia cuprina Test (LUCICU)
Species: Lucilia cuprina 1st larval stage (age: 24 hours)
as §3, §4
Vessels containing 1 cm^3 of horsemeat which had been treated with the active ingredient formulation are populated with about 20 Lucilia cuprina 1st instar larvae.
After 48 h, the kill in % is determined 100% means that all larvae have been killed; 0% means that no larvae have been killed.

A short description of data set [4]: log P determination by HPLC on reversed-phase columns (C 18), acidic range. The class given is physicochemical. Here is the method: The log P values reported in the table above and in the Preparation Examples were determined in accordance with EEC Directive 79/831 Annex V.A8 by HPLC (High Performance Liquid Chromatography) on reversed-phase columns (C 18), with the following methods:
The LC-MS determination in the acidic range is effected at pH 2.7 using 0.1% aqueous formic acid and acetonitrile (contains 0.1% formic acid) as eluents, linear gradient from 10% acetonitrile to 95% acetonitrile
The calibration was effected with unbranched alkan-2-ones (having 3 to 16 carbon atoms) with known log P values (log P values determined on the basis of the retention times by linear interpolation between two successive alkanones).

The subject of data set [5] is caterpillars of the armyworm (Spodoptera frugiperda). In words: Spodoptera frugiperda test (SPODFR spray treatment). Type of data set: in vivo. The settings on record: for pest or weed control at 100 g/ha: Spodoptera frugiperda, foliar, 168 h, read-out: efficacy in % (caterpillars killed). Here is the method:
Spodoptera frugiperda Test (SPODFR Spray Treatment)
(§6) Solvent: 78.0 parts by weight of acetone 1.5 parts by weight of dimethylformamide
as §2, §5
Leaf discs of maize (Zea mays) are sprayed with an active ingredient formulation of the desired concentration and, after drying, populated with caterpillars of the armyworm (Spodoptera frugiperda).
After 7 days, the efficacy in % is determined 100% means that all caterpillars have been killed; 0% means that no caterpillars have been killed.

Data set [6] relates to larvae of the mustard beetle (Phaedon cochleariae). In words: Phaedon test (PHAECO spray treatment), Use Example 2. The following applies: foliar, 168 h, read-out: efficacy in % (beetle larvae killed). The class given is in vivo. Here is the method: as §1, §6, §2, §5
Leaf discs of Chinese cabbage (Brassica pekinensis) are sprayed with an active ingredient formulation of the desired concentration and, after drying, populated with larvae of the mustard beetle (Phaedon cochleariae).
After 7 days, the efficacy in % is determined 100% means that all beetle larvae have been killed; 0% means that no beetle larvae have been killed.

[7] abbreviates: 100 g/ha, spray on maize leaf discs, after 7 days.

The compound `CNC(=O)c1cc(C)cc(C)c1NC(=O)c1cc(Cn2nnc(C(F)(F)F)n2)nn1-c1ncccc1Cl` [Comparative Example, reference compound] had a larval mortality at 20 g/ha in data set [1] of 0%.
In the case of `CC(=O)c1cc(C)c(NC(=O)c2cc(Cn3nnc(C(F)(F)F)n3)nn2-c2ncccc2Cl)c(C(=O)NC(C)(C)C)c1` [Compound 1], the “kill in % (flies killed)” value with adult Musca domestica is reported as 100%. In addition, the pest or weed control at 100 g/ha in data set [2] (in Brassica rapa) and in data set [5] (in Zea mays) was 100% throughout. The “kill in % (larvae killed)” value in data set [3] came out at 100%. Also, the “LOGP (HCOOH)” value in data set [4] (pH 2.7) was determined as 3.26.
In the case of `CNC(=O)c1cc(C(=O)OC)cc(C)c1NC(=O)c1cc(Cn2nnc(C(F)(F)F)n2)nn1-c1ncccc1Cl` [Compound 2], the pest or weed control at 100 g/ha in data set [6] (in Brassica rapa) stood at 100%; in data set [2] (in Brassica rapa), 90%; in data set [5] (in Zea mays), 100%. Further, the “kill in % (flies killed)” value in the data set on adult Musca domestica is 90%. Moreover, the “kill in % (larvae killed)” value in data set [3] is 100%. The chromatographic logP in data set [4] (pH 2.7, LOGP (HCOOH)) was 2.77.
Take `COC(=O)c1cc(C)c(NC(=O)c2cc(Cn3nnc(C(F)(F)F)n3)nn2-c2ncccc2Cl)c(C(=O)NC(C)C)c1` [Compound 3]: the pest or weed control at 100 g/ha in data set [6] (in Brassica rapa) and in data set [5] (in Zea mays) was 100% each time. In data set [3], the “kill in % (larvae killed)” value was found to be 100%. Besides, the chromatographic logP in data set [4] (pH 2.7, LOGP (HCOOH)) stood at 3.21.
For the compound `COC(=O)c1cc(C)c(NC(=O)c2cc(Cn3nnc(C(F)(F)F)n3)nn2-c2ncccc2Cl)c(C(=O)NC(C)(C)C)c1` [Compound 4], the pest or weed control at 100 g/ha in data set [6] (in Brassica rapa) and in data set [5] (in Zea mays) was 100% throughout. Also, in the data set with adult Musca domestica, the “kill in % (flies killed)” value is 100%. In addition, the “kill in % (larvae killed)” value in data set [3] is on record as 100%. This compound also gave a chromatographic logP in data set [4] (pH 2.7, LOGP (HCOOH)) of 3.52.
On to `COC(=O)c1cc(C)c(NC(=O)c2cc(Cn3nnc(C(F)(F)F)n3)nn2-c2ncccc2Cl)c(C(N)=O)c1` [Compound 5], for which the values for the pest or weed control at 100 g/ha in data set [6] (in Brassica rapa), in data set [2] (in Brassica rapa) and in data set [5] (in Zea mays) were 100%, 90% and 100%, respectively. In addition, in data set [3], the “kill in % (larvae killed)” value came out at 100%. This compound also had a chromatographic logP in data set [4] (pH 2.7, LOGP (HCOOH)) of 2.56.
As for `CC(=O)c1cc(C)c(NC(=O)c2cc(Cn3nnc(C(F)(F)F)n3)nn2-c2ncccc2Cl)c(C(=O)NC(C)(C)C)c1` [Compound 6], the “kill in % (flies killed)” value in the data set with adult Musca domestica came to 90%. Further, the “kill in % (larvae killed)” value in data set [3] came out at 100%. In data set [4] (pH 2.7, LOGP (HCOOH)), this compound yielded a chromatographic logP of 2.87. The “efficacy in % (caterpillars killed)” value in data set [5] (setting [7]) came out at 100%.
As to `C/C(=N\O)c1cc(C)c(NC(=O)c2cc(Cn3nnc(C(F)(F)F)n3)nn2-c2ncccc2Cl)c(C(=O)NC(C)(C)C)c1` [Compound 7], the pest or weed control at 100 g/ha in data set [2] (in Brassica rapa) and in data set [5] (in Zea mays) was 100% each time. For the same compound, the “kill in % (larvae killed)” value in data set [3] amounted to 100%. This compound also returned a chromatographic logP in data set [4] (pH 2.7, LOGP (HCOOH)) of 3.
`CNC(=O)c1cc(C(N)=S)cc(C)c1NC(=O)c1cc(Cn2nnc(C(F)(F)F)n2)nn1-c1ncccc1Cl` [Compound 23]: the larval mortality at 20 g/ha in data set [1] is 100%. Also, the pest or weed control at 100 g/ha in data set [6] (in Brassica rapa), in data set [2] (in Brassica rapa) and in data set [5] (in Zea mays) was 100% each time. Moreover, the chromatographic logP in data set [4] (pH 2.7, LOGP (HCOOH)) was found to be 2.26.
With `Cc1cc(C(N)=S)cc(C(=O)NC(C)(C)C)c1NC(=O)c1cc(Cn2nnc(C(F)(F)C(F)(F)F)n2)nn1-c1ncccc1Cl` [Compound 26], the pest or weed control at 100 g/ha in data set [6] (in Brassica rapa), in data set [2] (in Brassica rapa) and in data set [5] (in Zea mays) was 100% throughout. Further, the chromatographic logP in data set [4] (pH 2.7, LOGP (HCOOH)) amounted to 3.26.
For the compound `COC(=O)c1cc(C)c(NC(=O)c2cc(Cn3nnc(C(F)(F)C(F)(F)F)n3)nn2-c2ncccc2Cl)c(C(=O)NC(C)(C)C)c1` [Compound 27], the pest or weed control at 100 g/ha in data set [6] (100 g/ha, spray on Chinese cabbage leaf discs, after 7 days) was 100%; in data set [2] (100 g/ha, spray on Chinese cabbage leaf discs, after 6 days), 90%; in data set [5] (setting [7]), 100%. For the same compound, the chromatographic logP in data set [4] (reversed-phase C18 HPLC column, pH 2.7, HPLC reversed-phase C 18, pH 2.7, 0.1% aqueous formic acid / acetonitrile, read-out: LOGP (HCOOH)) is 3.85.
Take `CNC(=O)c1cc(-n2cncn2)cc(C)c1NC(=O)c1cc(Cn2nnc(C(F)(F)F)n2)nn1-c1ncccc1Cl` [Compound 36]: the pest or weed control at 100 g/ha in data set [6] (in Brassica rapa), in data set [2] (in Brassica rapa) and in data set [5] (in Zea mays) was 100% in each case. The chromatographic logP in data set [4] (pH 2.7, LOGP (HCOOH)) is 2.25.
